In one series the test system is Rb-negative tumors. The note with it: reported by Michaud et al., Cancer Res. 70:3228-3238 (2010); cited from earlier work.
Series [1] concerns patients with ER+/HER2− metastatic breast cancer. The series is described as follows: Phase 1b trial, expansion portion: gedatolisib plus palbociclib plus fulvestrant or letrozole. The class given is in vivo, human. The note with it: for Overall Response Rate: partial objective response; for # of Partial Responses: patients who failed 2 or more prior lines of therapy; for median duration of treatment, Arm D relative to Arm C: 3 weeks on/1 week off vs weekly. The source says:
To evaluate this hypothesis, Pfizer initiated a Phase 1b trial dose-finding trial with a four-armed expansion portion for safety and efficacy to evaluate gedatolisib when added to either the standard doses of palbociclib plus letrozole or palbociclib plus fulvestrant in patients with ER+/HER2− metastatic breast cancer. PI3K mutation status was not used as an eligibility criterion. Patient enrollment for the trial is complete. A preliminary analysis for the 103 patients enrolled in the expansion portion of the Phase 1b clinical trial, as of the database cutoff date of Jan. […] 1. Objectives
(§1) This is a Phase 1b, multicenter, open-label, study in patients with mBC. This study has both a dose escalation and expansion portion. The dose escalation portion will identify the MTD of the combination of gedatolisib plus palbociclib/letrozole and gedatolisib plus palbociclib/fulvestrant. The expansion portion will estimate the objective response rate of the combination of gedatolisib plus palbociclib/letrozole and the combination of gedatolisib plus palbociclib/fulvestrant.
The study population for the dose escalation and the dose expansion consists of patients of any menopausal status with ER-positive, HER2-negative, metastatic or locally-recurrent/advanced breast cancer (mBC).
Once the MTD of each combination was determined this triggers the initiation of the expansion portion, which comprises 4 arms, as follows: (1) Arm A: first-line endocrine-based therapy; (2) Arm B: second- or third-line endocrine-based therapy, without prior palbociclib (or other CDK inhibitor) therapy; (3) Arm C: second- or third-line endocrine-based therapy with prior exposure to palbociclib (or other CDK inhibitor) therapy, in which gedatolisib is administered once weekly for four weeks; and (4) Arm D: second or third line endocrine based therapy with progression on palbociclib (or other CDK inhibitor) therapy (as the most recent regimen), in which gedatolisib is administered on a three weeks on/one week off (3:1) schedule.
All cycles are 28 days in length. Gedatolisib is administered IV weekly on Days 1, 8, 15 and 22 of each cycle (except for Arm D, in which gedatolisib is administered on Days 1, 8 and 15 of each cycle), palbociclib is administered at 125 mg/day orally continuously dosed for 3 weeks followed by 1 week off, repeated at each subsequent cycle. Letrozole 2.5 mg daily is administered orally on a continuous basis (daily) and fulvestrant is administered at a dose of 500 mg intramuscularly on Cycle 1 Day 1, Cycle 1 Day 15, Cycle 2 Day 1, and then on […] of each subsequent cycle (±3 days).
Gedatolisib was administered weekly as an IV infusion over approximately 30 minutes. (Dose Escalation; Dose Expansion: Arm A, Arm B and Arm C).
In Arm D of the Dose Expansion portion, gedatolisib was administered on a 3 week on/one week off schedule as an IV infusion over approximately 30 minutes. No premedication was required.
The coprimary efficacy endpoints of the study were (1) first cycle Dose-Limiting Toxicities (DLTs); and (2) Objective response (OR) as assessed by the Investigator.
The secondary efficacy endpoints of the study were: • 1) Safety including adverse events as characterized by type, frequency, severity, timing, seriousness and relationship to study therapy and laboratory abnormalities as characterized by type, frequency, severity and timing. • 2) Tumor response for the dose escalation portion of the study. • 3) DR and PFS (as assessed using the RECIST v 1.1) for the expansion portion of the study. • 4) QTc interval. • 5) Single and multiple dose PK parameters of gedatolisib and palbociclib. Multiple dose PK parameters of fulvestrant and letrozole (Dose Escalation portion only). • 6) Single and multiple dose PK parameters of gedatolisib (Dose Expansion portion only). 7. Results
Arm D patients received gedatolisib (180 mg IV three weeks on/one week off). […]

The nature of series [2]: Phase 1b trial, dose escalation portion: maximum tolerated dose. The class given is in vivo, human. The note with it: IV, in triplet combination with palbociclib and letrozole or fulvestrant.
From the text: The primary objective of the study was to assess the safety, tolerability, and maximum tolerated dose (MTD) of the triplet combination of gedatolisib added to either the standard dose of the palbociclib/letrozole or palbociclib/fulvestrant.
as §1
The dose escalation portion of the study initially assess safety and tolerability of the 180 mg/week dose of gedatolisib plus standard doses of palbociclib/letrozole or 180 mg/week dose of gedatolisib plus standard doses of palbociclib/fulvestrant. The dose escalation portion then explore escalating doses of gedatolisib plus each regimen. During the dose escalation 10 DLT evaluable patients are treated at the expected MTD.
The conventional approach to determining the dosing schedule for a therapeutic regimen for cancer patients is to determine the maximum tolerated dose in a Phase 1 clinical trial. […]

A short description of series [3]: Stability of crystalline form on storage. The class given is physicochemical. The note with it: 25° C. and 60% Relative Humidity (RH). The source says:
(§2) Gedatolisib is a pan-class I isoform PI3K/mTOR inhibitor with high potency (NCT02626507, Apr. 24, 2020). The chemical synthesis of gedatolisib is disclosed in U.S. Pat. Nos. 8,039,469; 8,217,036; 8,445,486; 8,575,159; 8,748,421; 8,859,542; 9,174,963; 10,022,381, which are hereby incorporated by reference in their entirety. […] Accordingly, formulations that allow for therapeutic dosage levels have been developed.

Series [4] in a line: Aqueous solubility / achievable solution concentration. The class given is physicochemical. The note with it: free base; for aqueous IV or parenteral solution at therapeutic dosage levels.
From the text: as §2, with “developed. The formulations include gedatolisib, or a methanesulphonate salt thereof, methanesulphonic acid, and water. […] Another formulation disclosed is gedatolisib, or an ethanesulphonate salt thereof, ethanesulphonic acid and water.” for “developed.”

In series [5] the test system is MCF7 xenograft model (ER+/HER2−/PIK3CA mutant). The note with it: cited from earlier work.
The conditions of series [6]: aqueous formulation with methanesulphonic acid or ethanesulphonic acid; WO2019038657; cited from earlier work.
Setting [7] is: Arm C, weekly, failed 2 or more prior lines of therapy.
Where [8] appears, read: Arm D vs Arm C, failed 2 or more prior lines of therapy.
The mark [9] stands for this setting: Arm D, 3 weeks on/1 week off, DIPT < 180 days.
Where [10] appears, read: Arm D, 3 weeks on/1 week off, DIPT < 365 days.
The mark [11] stands for this setting: Arm D, 3 weeks on/1 week off, failed 2 or more prior lines of therapy.

Data on two compounds can be found in patent publication US12350276B2, “Methods for the treatment of cancer using 1-(4-{[4-(dimethylamino)piperidin-1-yl]carbonyl}phenyl)-3-[4-(4,6-dimorpholin-4-yl-1,3,5-triazin-2-yl)phenyl]urea” (Celcuity Inc., priority 2021, dated 2025).

For `CC(=O)c1c(C)c2cnc(Nc3ccc(N4CCNCC4)cn3)nc2n(C2CCCC2)c1=O` [PD-0332991, 6-acetyl-8-cyclopentyl-5-methyl-2-(5-piperazin-1-yl-pyridin-2-ylammino)-8H-pyrido-[2,3-d]-pyrimidin-7-one], the “activity against Rb-negative tumors” value in the series on Rb-negative tumors is “inactive”.

With `CN(C)C1CCN(C(=O)c2ccc(NC(=O)Nc3ccc(-c4nc(N5CCOCC5)nc(N5CCOCC5)n4)cc3)cc2)CC1` [gedatolisib, 1-(4-{[4-(Dimethylamino)piperidin-1-yl]carbonyl}phenyl)-3-[4-(4,6-dimorpholin-4-yl-1,3,5-triazin-2-yl)phenyl]urea], the “Median Duration of Gedatolisib (DGT) Treatment” value was 81 days in series [1] (Arm C, weekly gedatolisib with palbociclib and fulvestrant, DIPT < 180 days); 131 days in series [1] (Arm C, weekly gedatolisib with palbociclib and fulvestrant, DIPT < 365 days); 270 days in series [1] (Arm D, gedatolisib 180 mg IV 3 weeks on/1 week off with palbociclib and fulvestrant, DIPT < 180 days); 276 days in series [1] (Arm D, gedatolisib 180 mg IV 3 weeks on/1 week off with palbociclib and fulvestrant, DIPT < 365 days). The “Ratio of median DIPT vs. DGT” value is listed as 0.8 in series [1] (Arm C, weekly, DIPT < 180 days); 0.9 in series [1] (Arm C, weekly, DIPT < 365 days); 2.6 in series [1] (setting [9]); 1.8 in series [1] (setting [10]). Besides, the “Overall Response Rate” value in series [1] (Arm C, weekly, DIPT < 180 days) stood at 0%; in series [1] (Arm C, weekly, DIPT < 180 days, listed as Gedatolisib) it was 0%; in series [1] (Arm C, weekly, DIPT < 365 days) it was 15%; in series [1] (Arm C, weekly, DIPT < 365 days, listed as Gedatolisib), 15%; in series [1] (setting [9]) it was 71%; in series [1] (Arm D, 3 weeks on/1 week off, DIPT < 180 days, listed as Gedatolisib) it was 71%. In addition, the “Overall Response Rate” value in series [1] (setting [10]) was 73%; in series [1] (Arm D, 3 weeks on/1 week off, DIPT < 365 days, listed as Gedatolisib), 73%. Further, the figures for the “Mean Progression Free Survival” value in series [1] (setting [7]) and in series [1] (setting [11]) were 233 and 531, respectively. Besides, the “Objective Response Rate” value in series [1] (setting [7]) was 32%; in series [1] (setting [11]), 78%. The “# of Partial Responses” value in series [1] (Arm C, weekly, 19 evaluable) came out at 6; in series [1] (Arm D, 3 weeks on/1 week off, 9 evaluable), 7. The “Mean Progression Free Survival, Odds Ratio” value in series [1] (setting [8]) is recorded as 2.28. Further, the “Objective Response Rate, Odds Ratio” value is reported as 2.4 in series [1] (setting [8]) and 2.44 in series [1] (Arm D vs Arm C, failed 2 or more prior lines of therapy, listed as Gedatolisib). In addition, the “Median progression free survival” value in series [1] (Arm D: prior endocrine therapy plus CDK4/6 inhibitor, gedatolisib 3 weeks on/1 week off with palbociclib and fulvestrant) came out at 13.2 months. Further, the “clinical benefit rate (CBR)” value in series [1] (expansion portion, all arms, 88 evaluable patients, confirmed PR or stable disease for 24 weeks, cutoff Jan. 11, 2021) stood at 75%. For the same compound, the “objective response rate (ORR)” value in series [1] (expansion portion, all arms, 88 evaluable patients, confirmed or unconfirmed PR, with palbociclib plus letrozole or fulvestrant, cutoff Jan. 11, 2021, preliminary analysis) worked out at 60%. For the same compound, the figures for the “median duration of treatment, Arm D relative to Arm C” value in series [1] (patients who progressed on immediate prior therapy in ≤6 months) and in series [1] (patients who progressed on immediate prior therapy in ≤12 months) were “more than 3 times” and “more than two times longer”, respectively. Moreover, the maximum tolerated dose in series [2] stood at 180 mg weekly. Also, the “chemically and physically stable for” value in series [3] is “up to 3 years”. Moreover, the water solubility entry in series [4] is “insufficiently water soluble”. The “time tumors remained dormant without further therapy” value in series [5] (after triplet therapy (gedatolisib, palbociclib, fulvestrant)) is given as “up to 90 days”. The tumor response entry in series [5] (combination of gedatolisib with palbociclib and fulvestrant, Pfizer internal preclinical study) was “durable tumor regressions”. In series [5] (triplet therapy (gedatolisib, palbociclib, fulvestrant)), the “time for tumors to regress to minimal volumes” value was not above 20 days. For the same compound, the “solution concentration achieved (clear, essentially particle-free solution)” value in series [6] was “up to 30 mg/ml”.
